Measured values reported in patent US20230417767A1, “COMPOSITIONS AND METHODS FOR THE DIAGNOSIS AND TREATMENT OF AGE-RELATED MACULAR DEGENERATION” (Georgetown University, priority 2016, published 2023).

Assays:
AMD RPE = assay: Cell viability of AMD RPE under oxidative stress; format: cell-based, human; details: FIG. 16E-G
Experimental: RPE were cultured at 80-90% confluency in 96-well plates, at 37° C. with 5% O2 and 5% CO2. Oxidative stress was induced with different concentrations of H2O2 ranging from 0-10 mM for 24 or 48 hrs, followed by cell viability measurements. Cell viability was measured following a 30 min incubation with the PestoBlue Reagent (Life Technologies) of RPE monolayers cultured on 96-well plates, 6 wells used for each sample. Fluorescence measurements were performed using an Ultra384 plate reader with 535 nm excitation and 612 nm emission wavelengths.

AMPK = AMPK phosphorylation in RPE; format: cell-based, human; details: FIG. 16D
Description: FIGS. 1-3 show various representations of an in vitro disease model of AMD. A total of 10 eyes from 5 organ donors clinically diagnosed with dry AMD and 10 eyes from 5 clinically normal donors were purchased from Lions Medical Eye Bank. RPE were isolated according to established protocols (Maminishkis et al., 2006) and cultured in Epithelial Cell Media (EpiCM, ScienCell) under controlled oxygen (5%) and CO2 (5%) conditions. Studies have shown that low (physiological) oxygen concentration promotes RPE growth (Knorr et al., 1993) and better protects from ROS-induced damage in vitro. RPE were then purified with Magnetic-Activated Cell Sorting (MACS) by positive selection for epithelial cells using anti-BEST1 antibody (Abcam) and anti-E-cadherin (Miltenyi Biotech); and by negative selection using a fibroblast-specific antibody (Miltenyi Biotech) to remove fibroblasts. The purity of the sorted cells was confirmed by immunostaining with anti-ZO-1 and anti-BEST1, and Real-Time PCR for RPE specific genes. The RPE cells were grown in Epithelial Cell Media (EpiCM, ScienCell) at 37° C., with 5% O2 and 5% CO2. […] Skin fibroblasts from a dry AMD patient were used to generate iPSC-RPE. […]
Immunoblot analysis. […] Protein concentrations were measured by Bradford assay (Bio-Rad). Protein samples were analyzed using the NuPAGE electrophoresis and XCell Western blot system (Invitrogen). […]

[1] = tested on: Acyl-CoA Dehydrogenase (ACADM); assay: Acyl-CoA Dehydrogenase (ACADM) expression in RPE; format: cell-based, human; details: FIG. 16A-C
Description: (§1) FIGS. 1-3 show various representations of an in vitro disease model of AMD. A total of 10 eyes from 5 organ donors clinically diagnosed with dry AMD and 10 eyes from 5 clinically normal donors were purchased from Lions Medical Eye Bank. RPE were isolated according to established protocols (Maminishkis et al., 2006) and cultured in Epithelial Cell Media (EpiCM, ScienCell) under controlled oxygen (5%) and CO2 (5%) conditions. Studies have shown that low (physiological) oxygen concentration promotes RPE growth (Knorr et al., 1993) and better protects from ROS-induced damage in vitro. RPE were then purified with Magnetic-Activated Cell Sorting (MACS) by positive selection for epithelial cells using anti-BEST1 antibody (Abcam) and anti-E-cadherin (Miltenyi Biotech); and by negative selection using a fibroblast-specific antibody (Miltenyi Biotech) to remove fibroblasts. The purity of the sorted cells was confirmed by immunostaining with anti-ZO-1 and anti-BEST1, and Real-Time PCR for RPE specific genes. The RPE cells were grown in Epithelial Cell Media (EpiCM, ScienCell) at 37° C., with 5% O2 and 5% CO2. […] Skin fibroblasts from a dry AMD patient were used to generate iPSC-RPE. Genotyping of the donors and the patient is represented in FIG. 3.
(§2) Quantitative Real-Time Polymerase Chain Reaction Analyses. […] Quantitative PCR was performed with the QuantiTect SYBR Green PCR Kit (Qiagen). […]

PGC-1α [2] = assay: PGC-1α gene expression in mice fed high fat diet containing compound; format: in vivo; details: compound in high fat diet (telmisartan, UPF 0.001%; fenofibrate 0.1%), 11 weeks, FIG. 24
Experimental: (§3) Quantitative Real-Time Polymerase Chain Reaction Analyses. Total RNA was extracted with the RNeasy kit (Qiagen), treated with RNase-free DNase I (Qiagen), and reverse transcribed with oligo-dT using the SuperScript III cDNA synthesis kit (Invitrogen). Quantitative PCR was performed with the QuantiTect SYBR Green PCR Kit (Qiagen). Specific primers for each gene were designed with the PrimerQuest software (Integrated DNA Technologies), and the cDNA sequences of each gene (GenBank) were used to produce 100-250 bp PCR amplicons that span one or more exon/intron boundaries.
(§4) The HET mice described in Example 2 were administered various compounds to determine the effects of these compounds on the development of AMD. In the High Fat Diet (HFD) experiments, 5 wild type (WT) mice, 5 PGC-1α+/−mice, 5 PGC-1α−/−mice at 2 months old with C57BL/6 background were fed with regular diet (RD) or high fat diet for 16 weeks. […]
(§5) To test the effects of telmisartan, fenofibrate and UPF 1069 on mice, 5 wild type (WT) mice, 5 PGC-1α+/−mice, 5 PGC-1α−/−mice at 2 months old were administrated with RD, HFD, or HFD (Testdiet, 5015) containing one of the three compounds. […] 11 weeks after beginning of administration of the compounds, the mice were sacrificed, the body weight was measured, the eyes were enucleated, with the retinas being extracted and processed for RNA isolation. […]

APOE = APOE expression in retina of mice fed high fat diet containing compound; format: in vivo; details: compound in high fat diet (telmisartan, UPF 0.001%; fenofibrate 0.1%), 11 weeks, FIG. 22
Experimental: as §3, §4, §5

PGC-1α [3] = assay: PGC-1α gene expression in retinal pigment epithelium (RPE); format: cell-based, human; details: FIG. 16A-C
Description: as §1, §2

APOB = APOB expression in retina of mice fed high fat diet containing compound; format: in vivo; details: PGC-1α+/− (HET) mice; compound in high fat diet (telmisartan, UPF 0.001%; fenofibrate 0.1%), 11 weeks; FIG. 20
Experimental: as §3, §4, §5

APP = APP expression in retina of mice fed high fat diet containing compound; format: in vivo; details: compound in high fat diet (telmisartan, UPF 0.001%; fenofibrate 0.1%), 11 weeks, FIG. 21
Experimental: as §3, §4, §5

APOJ = APOJ expression in retina of mice fed high fat diet containing compound; format: in vivo; details: genotype (WT or HET) not stated; telmisartan 0.001% in high fat diet, 11 weeks; FIG. 23A
Experimental: as §3, §4, §5

Row | Acyl-CoA Dehydrogenase (ACADM) expression ([1]; AMD RPE) | Acyl-CoA Dehydrogenase (ACADM) expression ([1]; normal (control) RPE) | SMILES | cell viability under oxidative stress (AMD RPE) | AMPK phosphorylation (AMPK; AMD RPE) | AMPK phosphorylation (AMPK; normal (control) RPE) | PGC-1α expression (PGC-1α [2]; PGC-1α+/− (HET) mice) | PGC-1α expression (PGC-1α [2]; WT mice) | APOE levels in the retina (APOE; PGC-1α+/− (HET) mice) | APOE levels in the retina (APOE; WT mice) | PGC-1α expression (PGC-1α [3]; AMD RPE) | PGC-1α expression (PGC-1α [3]; normal (control) RPE) | APOB levels in the retina (APOB) | APP levels in the retina (APP; PGC-1α+/− (HET) mice) | APP levels in the retina (APP; WT mice) | APOJ levels (APOJ)
1 |  |  | O=C(O)c1cc(C(=O)O)c2c(n1)C(=O)C(=O)c1cc(C(=O)O)[nH]c1-2 [PQQ, pyrroloquinoline quinone] | increasing |  |  |  |  |  |  |  |  |  |  |  | 
2 | increasing | increasing | CCCc1nc2c(C)cc(-c3nc4ccccc4n3C)cc2n1Cc1ccc(-c2ccccc2C(=O)O)cc1 [telmisartan] | increasing | inducing | inducing | significantly Increase | significantly increased | significantly reduce | significantly reduce | increasing | increasing | significantly reduce | unable to decrease | significant increase | did not reduce
